This is an account of results in publication PMC4506373 (Journal of Ginseng Research, 2014).

The test system of the experiment is special ginsenosidase type-I. Particulars: 0.02 M acetate buffer pH 5.0, 45°C; hydrolysis of 3-O-Glc of Rb2 to C-O.

In general, Km refers to the concentration of substrate that gives half-maximal velocity. Turning to `CC(C)=CCC[C@](C)(O[C@@H]1O[C@H](CO[C@@H]2OC[C@H](O)[C@H](O)[C@H]2O)[C@@H](O)[C@H](O)[C@H]1O)[C@H]1CC[C@]2(C)[C@@H]1[C@H](O)C[C@@H]1[C@@]3(C)CC[C@H](O[C@@H]4O[C@H](CO)[C@@H](O)[C@H](O)[C@H]4O[C@@H]4O[C@H](CO)[C@@H](O)[C@H](O)[C@H]4O)C(C)(C)[C@@H]3CC[C@]12C` [Rb2], the Km amounted to 20.4 ± 2.1 mM.
